Assay results taken from PubChem BioAssay AID1259407 (Chemical Carcinogenesis Research Information System (CCRIS), 2018).
The source made the active and inactive calls. The rule behind the calls is not given here.

Tested on: CCRIS mutagenicity, Ames/micronucleus/aberration tests
Assay: CCRIS mutagenicity studies

Measured: mutagenic call

O=C(O)CN(CC(=O)O)CC(=O)O
active: End Point: IN VITRO MICRONUCLEUS, Test System: CHINESE HAMSTER EMBRYONIC LUNG (CL-1) CELLS, Metabolic Activation: NONE active; positive at higher doses | End Point: In vitro micronucleus, Test System: CTLL-2 T mouse lymphocyte cells, Metabolic Activation: None active; positive | End Point: In vitro micronucleus, Test System: CTLL-2 bcl2 mouse lymphocyte cells, Metabolic Activation: None active; positive | End Point: In vitro micronucleus, Test System: L5178Y mouse lymphoma cells, Metabolic Activation: None active; positive
inactive: End Point: IN VITRO CHROMOSOMAL ABERRATIONS, Test System: CHO CELLS, Metabolic Activation: NONE inactive; negative | End Point: IN VITRO CHROMOSOMAL ABERRATIONS, Test System: CHO CELLS, Metabolic Activation: RAT, LIVER, S-9, AROCLOR 1254 inactive; negative | End Point: In vitro micronucleus, Test System: CTLL-2 T mouse lymphocyte cells, Metabolic Activation: Rat, Kidney, S9, Aroclor 1254 with NADP inactive; negative | End Point: In vitro micronucleus, Test System: CTLL-2 T mouse lymphocyte cells, Metabolic Activation: Rat, Kidney, S9, Aroclor 1254 with arachidonic acid instead of NADP inactive; negative | End Point: In vitro micronucleus, Test System: CTLL-2 T mouse lymphocyte cells, Metabolic Activation: Rat, Liver, S9, Aroclor 1254 inactive; negative | End Point: In vitro micronucleus, Test System: CTLL-2 bcl2 mouse lymphocyte cells, Metabolic Activation: Rat, Kidney, S9, Aroclor 1254 with NADP inactive; negative | End Point: In vitro micronucleus, Test System: CTLL-2 bcl2 mouse lymphocyte cells, Metabolic Activation: Rat, Kidney, S9, Aroclor 1254 with arachidonic acid instead of NADP inactive; negative | End Point: In vitro micronucleus, Test System: CTLL-2 bcl2 mouse lymphocyte cells, Metabolic Activation: Rat, Liver, S9, Aroclor 1254 inactive; negative | End Point: In vitro micronucleus, Test System: L5178Y mouse lymphoma cells, Metabolic Activation: Rat, Kidney, S9, Aroclor 1254 with NADP inactive; negative | End Point: In vitro micronucleus, Test System: L5178Y mouse lymphoma cells, Metabolic Activation: Rat, Kidney, S9, Aroclor 1254 with arachidonic acid instead of NADP inactive; negative | End Point: In vitro micronucleus, Test System: L5178Y mouse lymphoma cells, Metabolic Activation: Rat, Liver, S9, Aroclor 1254 inactive; negative | Test System: AMES SALMONELLA TYPHIMURIUM, Strain/Indicator: TA97, Metabolic Activation: HAMSTER, LIVER, S-9, AROCLOR 1254 (10 OR 30%), Method: PREINCUBATION inactive; negative | Test System: AMES SALMONELLA TYPHIMURIUM, Strain/Indicator: TA97, Metabolic Activation: NONE, Method: PREINCUBATION inactive; negative | Test System: AMES SALMONELLA TYPHIMURIUM, Strain/Indicator: TA97, Metabolic Activation: NONE, Method: SUSPENSION/PLATE inactive; negative | Test System: AMES SALMONELLA TYPHIMURIUM, Strain/Indicator: TA97, Metabolic Activation: RAT, LIVER, S-9, AROCLOR 1254 (10 OR 30%), Method: PREINCUBATION inactive; negative | Test System: AMES SALMONELLA TYPHIMURIUM, Strain/Indicator: TA98, Metabolic Activation: HAMSTER, LIVER, S-9, AROCLOR 1254 (10 OR 30%), Method: PREINCUBATION inactive; negative | Test System: AMES SALMONELLA TYPHIMURIUM, Strain/Indicator: TA98, Metabolic Activation: HAMSTER, LIVER, S-9, AROCLOR 1254, Method: STANDARD PLATE inactive; negative | Test System: AMES SALMONELLA TYPHIMURIUM, Strain/Indicator: TA98, Metabolic Activation: HAMSTER, LIVER, S-9, Method: STANDARD PLATE inactive; negative | Test System: AMES SALMONELLA TYPHIMURIUM, Strain/Indicator: TA98, Metabolic Activation: MOUSE, LIVER, S-9, AROCLOR 1254, Method: STANDARD PLATE inactive; negative | Test System: AMES SALMONELLA TYPHIMURIUM, Strain/Indicator: TA98, Metabolic Activation: MOUSE, LIVER, S-9, Method: STANDARD PLATE inactive; negative | Test System: AMES SALMONELLA TYPHIMURIUM, Strain/Indicator: TA98, Metabolic Activation: NONE, Method: PREINCUBATION inactive; negative | Test System: AMES SALMONELLA TYPHIMURIUM, Strain/Indicator: TA98, Metabolic Activation: NONE, Method: STANDARD PLATE inactive; negative | Test System: AMES SALMONELLA TYPHIMURIUM, Strain/Indicator: TA98, Metabolic Activation: NONE, Method: SUSPENSION/PLATE inactive; negative | Test System: AMES SALMONELLA TYPHIMURIUM, Strain/Indicator: TA98, Metabolic Activation: RAT, LIVER, S-9, AROCLOR 1254 (10 OR 30%), Method: PREINCUBATION inactive; negative | Test System: AMES SALMONELLA TYPHIMURIUM, Strain/Indicator: TA98, Metabolic Activation: RAT, LIVER, S-9, AROCLOR 1254, Method: STANDARD PLATE inactive; negative | Test System: AMES SALMONELLA TYPHIMURIUM, Strain/Indicator: TA98, Metabolic Activation: RAT, LIVER, S-9, Method: STANDARD PLATE inactive; negative | Test System: AMES SALMONELLA TYPHIMURIUM, Strain/Indicator: TA100(1,8-DNP6), Metabolic Activation: NONE, Method: SUSPENSION/PLATE inactive; negative | Test System: AMES SALMONELLA TYPHIMURIUM, Strain/Indicator: TA100(NR), Metabolic Activation: NONE, Method: SUSPENSION/PLATE inactive; negative | Test System: AMES SALMONELLA TYPHIMURIUM, Strain/Indicator: TA100, Metabolic Activation: HAMSTER, LIVER, S-9, AROCLOR 1254 (10 OR 30%), Method: PREINCUBATION inactive; negative | Test System: AMES SALMONELLA TYPHIMURIUM, Strain/Indicator: TA100, Metabolic Activation: HAMSTER, LIVER, S-9, AROCLOR 1254, Method: STANDARD PLATE inactive; negative | Test System: AMES SALMONELLA TYPHIMURIUM, Strain/Indicator: TA100, Metabolic Activation: HAMSTER, LIVER, S-9, Method: STANDARD PLATE inactive; negative | Test System: AMES SALMONELLA TYPHIMURIUM, Strain/Indicator: TA100, Metabolic Activation: MOUSE, LIVER, S-9, AROCLOR 1254, Method: STANDARD PLATE inactive; negative | Test System: AMES SALMONELLA TYPHIMURIUM, Strain/Indicator: TA100, Metabolic Activation: MOUSE, LIVER, S-9, Method: STANDARD PLATE inactive; negative | Test System: AMES SALMONELLA TYPHIMURIUM, Strain/Indicator: TA100, Metabolic Activation: NONE, Method: PREINCUBATION inactive; negative | Test System: AMES SALMONELLA TYPHIMURIUM, Strain/Indicator: TA100, Metabolic Activation: NONE, Method: STANDARD PLATE inactive; negative | Test System: AMES SALMONELLA TYPHIMURIUM, Strain/Indicator: TA100, Metabolic Activation: NONE, Method: SUSPENSION/PLATE inactive; negative | Test System: AMES SALMONELLA TYPHIMURIUM, Strain/Indicator: TA100, Metabolic Activation: RAT, LIVER, S-9, AROCLOR 1254 (10 OR 30%), Method: PREINCUBATION inactive; negative | Test System: AMES SALMONELLA TYPHIMURIUM, Strain/Indicator: TA100, Metabolic Activation: RAT, LIVER, S-9, AROCLOR 1254, Method: STANDARD PLATE inactive; negative | Test System: AMES SALMONELLA TYPHIMURIUM, Strain/Indicator: TA100, Metabolic Activation: RAT, LIVER, S-9, Method: STANDARD PLATE inactive; negative | Test System: AMES SALMONELLA TYPHIMURIUM, Strain/Indicator: TA102, Metabolic Activation: NONE, Method: SUSPENSION/PLATE inactive; negative | Test System: AMES SALMONELLA TYPHIMURIUM, Strain/Indicator: TA1535, Metabolic Activation: HAMSTER, LIVER, S-9, AROCLOR 1254 (10 OR 30%), Method: PREINCUBATION inactive; negative | Test System: AMES SALMONELLA TYPHIMURIUM, Strain/Indicator: TA1535, Metabolic Activation: HAMSTER, LIVER, S-9, AROCLOR 1254, Method: STANDARD PLATE inactive; negative | Test System: AMES SALMONELLA TYPHIMURIUM, Strain/Indicator: TA1535, Metabolic Activation: HAMSTER, LIVER, S-9, Method: STANDARD PLATE inactive; negative | Test System: AMES SALMONELLA TYPHIMURIUM, Strain/Indicator: TA1535, Metabolic Activation: MOUSE, LIVER, S-9, AROCLOR 1254, Method: STANDARD PLATE inactive; negative | Test System: AMES SALMONELLA TYPHIMURIUM, Strain/Indicator: TA1535, Metabolic Activation: MOUSE, LIVER, S-9, Method: STANDARD PLATE inactive; negative | Test System: AMES SALMONELLA TYPHIMURIUM, Strain/Indicator: TA1535, Metabolic Activation: NONE, Method: PREINCUBATION inactive; negative
